According to patent publication US20090298752A1, “APLIDINE TREATMENT OF CANCERS” (PHARMA MAR, S.A., priority 1999, published 2009):
Entries after “also recorded” stand apart in the source; their conditions may differ.

Experiments:
human bladder cancer = human bladder cancer animal models; assay type: in vivo; details: complete remissions in some animal models
Source text: Bladder tumours are one type of tumour over-expressing the receptor to Epithelial Growth Factor (EGF), which leads to upregulation of VEGF and the VEGF receptor. Binding of VEGF to its receptor is believed to lead to cell growth stimulation by means of transitory local calcium ion changes among other mechanisms for signalling. A compound inhibiting VEGF action is expected to be inhibitory to such tumours.

[1] = tested on: primary gastric tumour specimens; assay: in vitro activity on primary gastric tumour specimens; assay type: cell-based, human
Procedure: Different model systems were evaluated to provide the basis for further clinical work. Selective antitumour activities were seen against two histologically different solid tumours: human gastric and prostate carcinomas. Potent in vitro activity to primary gastric tumour specimens or Hs746T gastric tumour cells is evident with IC30 values of 146 and 450 pM, respectively. […] activities were evaluated in nude rodents using sc implanted tumour fragments or hollow fibres (HF) containing tumour cells.

HIF-1 = target: T1, HIF-1 (Homo sapiens, UniProt P27540+Q16665); assay: gel retardation assay, transcription factor binding; assay type: biochemical
T1 construct: endogenous in cells; host or cells: nuclear extracts
Procedure: Nuclear extracts were incubated with different aplidine concentrations and labelled oligonucleotides for 60 min. Using gel retardation assay the binding of HIF-1 or AP-1 has been monitored.
Nuclear extracts obtained from cells treated with different aplidine concentrations were incubated with labelled oligonucleotides for 60 min. Using gel retardation assay the binding of HIF-1 has been monitored.

MOLT-4 = assay: apoptosis in leukaemia cell line; assay type: cell-based, human
[2] = Clinical pharmacokinetics across phase I schedules; assay type: in vivo, human; details: plasma PK, initial results
Procedure: […] intravenous schedules are under phase I evaluation: weekly 24 h infusion, biweekly 24 h infusion and 5 consecutive days 1 h infusion every 3 weeks. APL blood concentrations are analysed by liquid chromatography-tandem mass spectrometry. […] An open 2-compartment model fits appropriately most profiles after 24 h infusion. For 1 h infusions a 3-compartment model provides a better fit in most cases. Obtained plasma levels are known to be active in vitro. Evaluation of additional patients, and a comparison of blood cells and plasma PK is ongoing.

[3] = Phase I, 24 h infusion every 2 weeks: toxicity and pharmacokinetics; assay type: in vivo, human
Procedure: Aplidine is given as a 24 hour infusion every 2 weeks. The starting dose was 200 μg/m^2/d and dose escalation proceed including so far 400, 800, 1600, and 3200 μg/m^2/d. A total of 18 patients (M/F: 7/11, median age 52, OMS 0/1:10/8) have been entered. […] Among evaluable patients, toxicity consisted of mild grade I-II nausea/vomiting, grade I-II asthenia, and cramping occurring during or immediately after the infusion. No neuromuscular toxicity were reported at the evaluated doses. One patient with an advanced lung cancer and documented tumour progression at the dose of 1600 μg/m^2 developed a haemolytic anaemia and thrombocytopenia that was considered unlikely related to the study drug. […] An open 2-compartment model fits appropriately most plasma concentration profiles. […] The accrual is ongoing to determine the dose limiting toxicity and the dose to be recommended in phase II studies.
Aplidine was given to patients with solid tumour/NHL as a 24 hr infusion/q2w to 35 patients (median: age=51/ECOG=1) with solid tumour (32 pts) or NHL (3 pts). 23/35 patients were previously exposed to ≧3 previous lines of chemotherapy. Nine dose levels (200-7000 μg/m^2/w/q2w) and 65 cycles (120 infusions) were given. […] Toxicity consisted of G2-3 asthenia and emesis in 9-2 patients and 12-1 pts, respectively. G3 nausea/vomiting (≧5000 μg/m^2) was efficiently treated then prevented with 4HT3-regimens. […] At the dose of 5000 μg/m^2/w/q2w, 2 patients experienced transient muscle cramps with reversible G3 CPK-MM elevations. Among 9 patients treated at 6000 μg/m^2/w, 3 patients experienced an increase of CPK-MM and aldolase after the 3rd injection of aplidine. CPK elevations were G1-2 and not symptomatic in 2 patients but a G3 CPK elevation with G3 muscular pain and loss of muscle strength (DLT) was reported in 1 pt. This was reversible with no sequel. […] Ultrastructural electron microscopy indicated no morphological mitochondria alteration but a lost of the thick myosin filaments. At 7000 μg/m^2/q2w, 4 patients have been entered. […] Mechanistic hypothesis and preventive strategies against muscle toxicity are under evaluation.

[4] = 6000 μg/m^2/w, among 9 patients
[5] = 6000 mcg/m^2/2 wks, 12 patients

T1 sequence (Q16665 whole entry): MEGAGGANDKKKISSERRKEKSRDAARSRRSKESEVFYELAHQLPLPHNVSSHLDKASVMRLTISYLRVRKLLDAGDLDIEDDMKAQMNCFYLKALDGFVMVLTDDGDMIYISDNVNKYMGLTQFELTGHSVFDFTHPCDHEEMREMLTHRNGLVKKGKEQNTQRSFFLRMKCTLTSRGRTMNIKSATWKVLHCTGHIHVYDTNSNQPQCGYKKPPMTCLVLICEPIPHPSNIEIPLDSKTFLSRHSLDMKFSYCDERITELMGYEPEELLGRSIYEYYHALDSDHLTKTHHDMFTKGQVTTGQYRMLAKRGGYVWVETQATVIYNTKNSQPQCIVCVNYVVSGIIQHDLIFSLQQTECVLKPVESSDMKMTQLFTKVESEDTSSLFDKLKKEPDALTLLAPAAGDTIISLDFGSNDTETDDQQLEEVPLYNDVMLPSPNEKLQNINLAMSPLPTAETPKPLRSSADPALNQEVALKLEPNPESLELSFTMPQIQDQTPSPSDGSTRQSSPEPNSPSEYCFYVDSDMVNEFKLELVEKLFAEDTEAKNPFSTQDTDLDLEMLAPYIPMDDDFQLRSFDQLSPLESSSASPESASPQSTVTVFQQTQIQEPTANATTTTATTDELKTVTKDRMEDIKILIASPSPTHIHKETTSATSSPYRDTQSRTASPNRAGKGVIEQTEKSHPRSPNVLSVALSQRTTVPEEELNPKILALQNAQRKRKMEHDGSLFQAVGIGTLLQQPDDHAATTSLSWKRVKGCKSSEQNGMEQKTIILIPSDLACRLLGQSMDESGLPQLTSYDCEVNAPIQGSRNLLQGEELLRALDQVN
T1 sequence (P27540 whole entry): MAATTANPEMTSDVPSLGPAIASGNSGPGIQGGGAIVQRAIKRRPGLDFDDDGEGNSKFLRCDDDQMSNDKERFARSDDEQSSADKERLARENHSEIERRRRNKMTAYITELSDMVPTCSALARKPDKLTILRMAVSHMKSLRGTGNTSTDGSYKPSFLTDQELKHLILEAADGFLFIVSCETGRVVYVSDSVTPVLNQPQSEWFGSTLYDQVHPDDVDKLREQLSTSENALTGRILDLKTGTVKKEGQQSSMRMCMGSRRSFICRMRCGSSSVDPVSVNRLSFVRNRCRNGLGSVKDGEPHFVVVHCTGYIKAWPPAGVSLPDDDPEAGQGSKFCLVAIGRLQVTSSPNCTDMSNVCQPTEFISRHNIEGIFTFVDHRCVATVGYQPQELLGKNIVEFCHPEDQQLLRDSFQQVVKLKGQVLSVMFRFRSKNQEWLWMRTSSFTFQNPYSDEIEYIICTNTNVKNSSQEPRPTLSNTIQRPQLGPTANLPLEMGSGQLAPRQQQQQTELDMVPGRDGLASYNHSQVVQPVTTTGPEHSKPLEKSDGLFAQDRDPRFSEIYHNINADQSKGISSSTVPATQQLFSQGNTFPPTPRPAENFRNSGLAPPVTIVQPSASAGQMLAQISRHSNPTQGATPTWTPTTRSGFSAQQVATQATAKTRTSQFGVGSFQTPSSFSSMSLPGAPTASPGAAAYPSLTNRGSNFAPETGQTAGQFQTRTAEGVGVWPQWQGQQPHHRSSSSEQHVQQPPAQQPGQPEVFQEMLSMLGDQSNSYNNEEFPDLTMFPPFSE

Substance: aplidine
- activity on human bladder cancer (human bladder cancer): exceedingly high activity
- IC30 [1]: 0.146 nM
- binding of HIF-1 to consensus DNA sequence (HIF-1; nuclear extracts from cells treated with aplidine): does not block the binding
- binding of HIF-1 to consensus DNA sequence (HIF-1; nuclear extracts incubated with aplidine, 60 min): does not block the binding; also recorded: did not change the ability
- apoptosis (MOLT-4): strong apoptosis
- elimination half lives [2]: 10 to 24 h
- volume of distribution [2]: > 200 L/m^2
- transient muscle cramps with reversible G3 CPK-MM elevations ([3]; 5000 μg/m^2/w/q2w): 2 patients
- G3 CPK elevation with G3 muscular pain and loss of muscle strength (DLT) [3, 4]: 1 pt
- increase of CPK-MM and aldolase after the 3rd injection [3, 4]: 3 patients
- initial phase median half-life ([3]; 2-compartment model, preliminary): 0.64 h
- terminal phase median half-life ([3]; 2-compartment model, preliminary, 24 h infusion): 25.8 h
- Nausea/vomiting G2 (worst toxicity per patient) ([3]; 200 mcg/m^2/2 wks, 3 patients): 2
- Transaminitis G2 (worst toxicity per patient) ([3]; 200 mcg/m^2/2 wks, 3 patients): 1
- Asthenia G2 (worst toxicity per patient) ([3]; 400 mcg/m^2/2 wks, 3 patients): 2
- Hypertension G2 (worst toxicity per patient) ([3]; 400 mcg/m^2/2 wks, 3 patients): 1
- Nausea/vomiting G2 (worst toxicity per patient) ([3]; 400 mcg/m^2/2 wks, 3 patients): 1
- Flushing G1 (worst toxicity per patient) ([3]; 800 mcg/m^2/2 wks, 3 patients): 1
- Muscle cramps G1 + G2 (worst toxicity per patient) ([3]; 800 mcg/m^2/2 wks, 3 patients): 2
- Asthenia G2 (worst toxicity per patient) ([3]; 1600 mcg/m^2/2 wks, 6 patients): 2
- Asthenia G3 (worst toxicity per patient) ([3]; 1600 mcg/m^2/2 wks, 6 patients): 1
- Muscle cramps G1 + G2 (worst toxicity per patient) ([3]; 1600 mcg/m^2/2 wks, 6 patients): 1
- Nausea/vomiting G2 (worst toxicity per patient) ([3]; 1600 mcg/m^2/2 wks, 6 patients): 4
- Transaminitis G3 (worst toxicity per patient) ([3]; 1600 mcg/m^2/2 wks, 6 patients): (1)
- Asthenia G2 (worst toxicity per patient) ([3]; 3200 mcg/m^2/2 wks, 3 patients): 1
- Flushing G1 (worst toxicity per patient) ([3]; 3200 mcg/m^2/2 wks, 3 patients): 1
- Muscle cramps G1 + G2 (worst toxicity per patient) ([3]; 3200 mcg/m^2/2 wks, 3 patients): 2
- Muscle pain G2 (worst toxicity per patient) ([3]; 3200 mcg/m^2/2 wks, 3 patients): (1)
- Nausea/vomiting G3 (worst toxicity per patient) ([3]; 3200 mcg/m^2/2 wks, 3 patients): (1)
- Asthenia G2 (worst toxicity per patient) ([3]; 4000 mcg/m^2/2 wks, 3 patients): 1
- Flushing G1 (worst toxicity per patient) ([3]; 4000 mcg/m^2/2 wks, 3 patients): 1
- Muscle cramps G1 + G2 (worst toxicity per patient) ([3]; 4000 mcg/m^2/2 wks, 3 patients): 2
- Muscle pain G1 (worst toxicity per patient) ([3]; 4000 mcg/m^2/2 wks, 3 patients): 2
- Nausea/vomiting G2 (worst toxicity per patient) ([3]; 4000 mcg/m^2/2 wks, 3 patients): 2
- Pain central catheter G2 (worst toxicity per patient) ([3]; 4000 mcg/m^2/2 wks, 3 patients): 2
- Asthenia G3 (worst toxicity per patient) ([3]; 5000 mcg/m^2/2 wks, 3 patients): (1)
- CPK elevation G3 (worst toxicity per patient) ([3]; 5000 mcg/m^2/2 wks, 3 patients): (1)[1]
- CPK elevation G4 (worst toxicity per patient) ([3]; 5000 mcg/m^2/2 wks, 3 patients): (1)[1]
- Muscle cramps G1 + G2 (worst toxicity per patient) ([3]; 5000 mcg/m^2/2 wks, 3 patients): 2
- Muscle pain G1 (worst toxicity per patient) ([3]; 5000 mcg/m^2/2 wks, 3 patients): 1
- Muscle weakness G1 (worst toxicity per patient) ([3]; 5000 mcg/m^2/2 wks, 3 patients): 1
- Nausea/vomiting G2 (worst toxicity per patient) ([3]; 5000 mcg/m^2/2 wks, 3 patients): 1
- Transaminitis G2 (worst toxicity per patient) ([3]; 5000 mcg/m^2/2 wks, 3 patients): 1
- Asthenia G2 (worst toxicity per patient) [3, 5]: 6
- CPK elevation G2 (worst toxicity per patient) [3, 5]: 1(1)
- CPK elevation G3 (worst toxicity per patient) [3, 5]: 1(1)
- Muscle cramps G1 + G2 (worst toxicity per patient) [3, 5]: 1
- Muscle pain G1 (worst toxicity per patient) [3, 5]: 1
- Muscle pain G2 (worst toxicity per patient) [3, 5]: 2
- Muscle weakness G1 (worst toxicity per patient) [3, 5]: 1(1)
- Muscle weakness G2 (worst toxicity per patient) [3, 5]: 1(1)
- Nausea/vomiting G2 (worst toxicity per patient) [3, 5]: 2
- Asthenia G2 (worst toxicity per patient) ([3]; 7000 mcg/m^2/2 wks, 7 patients): 2
- CPK elevation G2 (worst toxicity per patient) ([3]; 7000 mcg/m^2/2 wks, 7 patients): 1
- Flushing G1 (worst toxicity per patient) ([3]; 7000 mcg/m^2/2 wks, 7 patients): 1
- Muscle pain G1 (worst toxicity per patient) ([3]; 7000 mcg/m^2/2 wks, 7 patients): 1
- Nausea/vomiting G2 (worst toxicity per patient) ([3]; 7000 mcg/m^2/2 wks, 7 patients): 1
- Neutrophenia G4 (worst toxicity per patient) ([3]; 7000 mcg/m^2/2 wks, 7 patients): 1
- Transaminitis G2 (worst toxicity per patient) ([3]; 7000 mcg/m^2/2 wks, 7 patients): 1
- terminal half-life ([3]; Example 6): 10 to 24 h
- dose limiting toxicity ([3]; Example 6: 18 patients, 200-3200 μg/m^2/d): no dose limiting toxicity
- clearance ([3]; Example 14): 332 ml/mm.m^2
- terminal half life ([3]; Example 14): 15 to 35 h
- G2 asthenia, patients ([3]; Example 14, 35 patients): 9 patients
- G2 emesis, patients ([3]; Example 14, 35 patients): 12 pts
- G3 asthenia, patients ([3]; Example 14, 35 patients): 2 patients
- G3 emesis, patients ([3]; Example 14, 35 patients): 1 pts
- cardiac toxicity ([3]; Example 14, 35 patients): No cardiac toxicity
- haematologic toxicity ([3]; Example 14, 35 patients): No haematiologic toxicity
- coefficient of variation of CL ([3]; Example 18, interpatient): 62%
- t ½ ([3]; Example 18, median, quartiles 15.7-35.0): 23.8 h
- plasma CL ([3]; Example 18, median, quartiles 192-415): 252 mL/min/m^2
- Vss ([3]; Example 18, median, quartiles 274-638): 413 L/m^2
- Plasma concentrations 24 h after the end of infusion, comparable to efficient in vitro concentrations ([3]; doses ≧3000 μg/m^2/q2w): < 1 ng/mL
